Assay results: US10413583B2, “Synthetic substrates for enzymes that catalyze reactions of modified cysteines and related methods” (The University of Chicago, priority 2016, dated 2019)
Entries after “also recorded” stand apart in the source; their conditions may differ.

Legend:
human colon organoids = assay: Epifluorescent imaging of RDP-2 with human colon organoids; format: cell-based; settings: 40 μM inhibitor 30 min, 5 μM RDP-2
Experimental: At least 24 h before imaging experiments, cultured colon organoids were split using a 25G needle and 1 mL syringe, pelleted, and 50-100 organoids per well were re-plated in eight-well chambered slides (20 μL droplets/well; 250 μL organoid growth media; Cellvis, Mountain View, Calif., United States of America) for treatment and imaging. 30 min before the addition of RDP-2, the cell culture media was removed and cells were washed with 300 μL of serum-free FluoroBrite DMEM (Gibco, Gaithersburg, Md., United States of America; High Glucose, Glutamax, no FBS). […] After incubation for 10 min at 37° C. and 5% CO2, the cells were washed with 300 μL Live Cell Imaging Solution and 300 μL of Live Cell Imaging Solution containing DMSO or the appropriate inhibitor was added to the cells immediately before images were obtained on an inverted epi-fluorescence microscope (Olympus IX83; Olympus Corporation, Tokyo, Japan) attached with EMCCD camera (Photometrics EVOLVE™ Delta, Photometrics, Tucson, Ariz., United States of America) with 40× oil objective (N/A 1.3) for RDP-2 (excitation filter 1 430/24 nm, dichroic chroma 89007, emission filter 1 470/24 nm, exposure time 150 ms, EM gain 100, excitation filter 2 480/20 nm, dichroic chroma 49014, emission filter 2 575/40 nm, exposure time 75 ms, EM gain 75), brightfield (exposure time 50 ms, EM gain 30). […]

HeLa cells = assay: Epifluorescent imaging of DPP-5 with PalmB in HeLa cells; format: cell-based, human
Experimental: (§1) 250,000 HEK293T cells/well, 120,000 HeLa cells/well, or 100,000 HepG2 cells/well were plated in 700 μL DMEM glutamax (10% FBS+1% P/S) into 4-well chambered imaging dish (D35C4-20-1.5-N, Cellvis, Mountain View, Calif., United States of America), which were precoated with 5 μg Poly-D-lysine (30-70 KDa, Alfa Aesar, Haverhill, Mass., United States of America) for 2 h. After 20-24 h, the media was replaced by 1 μM Hoechst 33342 and DMSO/5 μM PalmB in 400 μL DMEM glutamax. After 30 min of incubation at 37° C., the cells were washed with 400 μL of Live Cell Imaging Solution and replaced by 1 μM DPP-5 with DMSO or 5 μM of PalmB in Live Cell Imaging Solution. […] For data analysis, the average fluorescence intensity per image in each experimental condition was obtained by selecting ROI in Brightfield and applying that to the corresponding DPP-5 image, average background fluorescence intensity was subtracted and data was normalized to the average fluorescence intensity of the DMSO control. […]

HEK293T cells = assay: Epifluorescent imaging of DPP-5 (and DPP-1, DPP-4) in HEK293T cells; format: cell-based, human
Experimental: as §1

[1] = 5 μM PalmB pretreatment, 1 μM DPP-5

CCCCCCCCCC[C@@H]1C(=O)O[C@H]1CCc1ccc(OC)c(OC)c1 [PalmB, palmostatin B]
inhibition / decrease of measured S-depalmitoylation, RDP-2 (human colon organoids): about 50% | turn-on response of DPP-5 blocked (HeLa cells; [1]): more than 95% | fluorescent signal of DPP-5 abolished (HEK293T cells; [1]): about 95%

CCCCCCCCCCCCCCCC(=O)SC[C@@H](C(=O)NC)N(C)C(=O)Oc1ccc2c(c1)Oc1cc(N3CCN(C(=O)CCC(=O)O)CC3)ccc1C21OC(=O)c2ccccc21 (stereo partly drawn) [DPP-5]
probe fluorescent signal in cells (HeLa cells; 1 μM probe for 20 minutes): robust intracellular fluorescent signal | probe fluorescent signal in cells (HEK293T cells; 1 μM probe for 20 minutes): bright, intracellular fluorescent signal; also recorded: robust fluorescent signal

O=C(CN1CCN(C(=O)c2ccco2)CC1)Nc1cc(C(F)(F)F)ccc1Cl [ML348]
inhibition / decrease of measured S-depalmitoylation, RDP-2 (human colon organoids): about 20%
